Assays:
MAPK14 (human) [1] = target: MAPK14 (human) (UniProt Q16539); assay: Inhibition of MAPK14 Kinase Activity by EGFRP Assay
MAPK14 (human) [2] = target: MAPK14 (human) (UniProt Q16539); assay: Inhibition of LPS Stimulated TNF Production by U937 Cells; settings: for inhibition: concentration not given here
MAPK14 (human) [3] = target: MAPK14 (human) (UniProt Q16539); assay: Inhibition of MAPK14 Kinase Activity by PHAS-I Assay; settings: for inhibition: concentration not given here

Sequence of MAPK14 (human) (Q16539 whole entry, looked up): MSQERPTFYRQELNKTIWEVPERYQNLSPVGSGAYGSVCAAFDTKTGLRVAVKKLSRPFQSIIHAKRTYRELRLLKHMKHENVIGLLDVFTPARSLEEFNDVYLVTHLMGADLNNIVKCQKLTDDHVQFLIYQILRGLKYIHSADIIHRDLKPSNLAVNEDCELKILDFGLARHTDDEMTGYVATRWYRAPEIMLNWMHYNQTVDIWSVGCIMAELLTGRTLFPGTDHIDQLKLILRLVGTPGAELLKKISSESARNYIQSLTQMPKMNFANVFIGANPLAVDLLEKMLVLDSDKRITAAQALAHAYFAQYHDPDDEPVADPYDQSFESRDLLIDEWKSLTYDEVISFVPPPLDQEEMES

`Cc1cc(-c2cn(C)nc2-c2cccc(Cl)c2)ccn1.Cc1cc(-c2cnn(C)c2-c2cccc(Cl)c2)ccn1` was tested. Which IC50 (MAPK14 (human) [1]) did it give?
Its IC50 is 44 nM.

How did the IC50 (MAPK14 (human) [1]) turn out when `Cc1cccc(-c2c(-c3ccnc(C)c3)cnn2C)c1` was run?
The IC50 was 104 nM.

For `Cn1cc(-c2ccncc2)c(-c2cccc(Cl)c2)n1.Cn1ncc(-c2ccncc2)c1-c1cccc(Cl)c1`, which IC50 (MAPK14 (human) [1]) is on record?
Its IC50 is 103 nM.

For `Fc1ccc(-c2n[nH]cc2-c2ccnc(NCCn3ccnc3)c2)cc1`, which IC50 (MAPK14 (human) [2]) is on record?
Its IC50 is 7.4 nM.

And the IC50 (MAPK14 (human) [1])?
Its IC50 is < 10 nM.

How did the inhibition (MAPK14 (human) [3]) turn out when `Cc1c(-c2ccncc2)c(-c2ccc(F)cc2)nn1CC(=O)NC(C)Cc1c[nH]c2ccccc12` (stereo not drawn) was run?
Its inhibition is 65%.

What about the inhibition (MAPK14 (human) [2]) of the same compound?
The inhibition was 28%.

Which results are given for `N#Cc1ccc(S(=O)(=O)NCCCc2[nH]nc(-c3ccc(F)cc3)c2-c2ccncc2)cc1`?
IC50 (MAPK14 (human) [3]): < 100 nM; inhibition (MAPK14 (human) [2]): 75%

With `CCN1CCC(N(CC)C(=O)Cn2nc(-c3ccc(F)cc3)c(-c3ccncc3)c2C)C1` (stereo not drawn) as the compound, how does the inhibition (MAPK14 (human) [3]) read?
Its inhibition is 32%.

What about the IC50 (MAPK14 (human) [2]) of the same compound?
Its IC50 is > 10000 nM.

With `COc1ccccc1NC(=O)NCCc1[nH]nc(-c2ccc(F)cc2)c1-c1ccncc1` as the compound, how does the inhibition (MAPK14 (human) [3]) read?
Its inhibition is 62%.

What about the IC50 (MAPK14 (human) [2]) of the same compound?
Its IC50 is 520 nM.

With `Cc1c(-c2ccncc2)c(-c2ccc(F)cc2)nn1CC(=O)N(C)CCN1CCOCC1` as the compound, how does the inhibition (MAPK14 (human) [3]) read?
The inhibition was 32%.

And the inhibition (MAPK14 (human) [2])?
Its inhibition is 28%.

What does the source list for `N/C(=C(\N)S(=O)(=O)NCc1[nH]nc(-c2ccc(F)cc2)c1-c1ccncc1)c1ccccc1`?
inhibition (MAPK14 (human) [3]): 89%; IC50 (MAPK14 (human) [2]): 2780 nM

What does the source list for `CC(C)S(=O)(=O)NCCc1[nH]nc(-c2ccc(F)cc2)c1-c1ccncc1`?
inhibition (MAPK14 (human) [3]): 77%; inhibition (MAPK14 (human) [2]): 34%

Which inhibition (MAPK14 (human) [3]) does the source give for `COc1ccc(CN(CCc2ccccc2)C(=O)Cn2nc(-c3ccc(F)cc3)c(-c3ccncc3)c2C)cc1` here?
Its inhibition is 75%.

And the IC50 (MAPK14 (human) [2])?
Its IC50 is > 10000 nM.

For `C[C@@H](NC(=O)c1ccc(F)cc1)c1[nH]nc(-c2ccc(F)cc2)c1-c1ccncc1`, which IC50 (MAPK14 (human) [3]) is on record?
The IC50 was 660 nM.

And the inhibition (MAPK14 (human) [2])?
The inhibition was 24%.

With `CCN(Cc1ccncc1)C(=O)Cn1nc(-c2ccc(F)cc2)c(-c2ccncc2)c1C` as the compound, how does the inhibition (MAPK14 (human) [3]) read?
Its inhibition is 68%.

What about the inhibition (MAPK14 (human) [2]) of the same compound?
The inhibition was 2%.

What does the source list for `O=C(NCCc1[nH]nc(-c2ccc(F)cc2)c1-c1ccncc1)N1CCCC1`?
inhibition (MAPK14 (human) [3]): 76%; inhibition (MAPK14 (human) [2]): 37%

What does the source list for `COC(=O)C1CN1C(=O)Cn1nc(-c2ccc(F)cc2)c(-c2ccncc2)c1C` (stereo not drawn)?
inhibition (MAPK14 (human) [3]): 45%; inhibition (MAPK14 (human) [2]): 24%

How did the inhibition (MAPK14 (human) [3]) turn out when `Cc1ccc(S(=O)(=O)NCCc2[nH]nc(-c3ccc(F)cc3)c2-c2ccncc2)cc1` was run?
Its inhibition is 58%.

What about the inhibition (MAPK14 (human) [2]) of the same compound?
The inhibition was 18%.

Which inhibition (MAPK14 (human) [3]) does the source give for `Cc1ccc([C@@H](C)NC(=O)Cn2nc(-c3ccc(F)cc3)c(-c3ccncc3)c2C)cc1` here?
Its inhibition is 81%.

And the inhibition (MAPK14 (human) [2])?
Its inhibition is 45%.

Which inhibition (MAPK14 (human) [3]) does the source give for `O=S(=O)(NCCc1[nH]nc(-c2ccc(F)cc2)c1-c1ccncc1)c1ccc(F)cc1F` here?
Its inhibition is 88%.

And the inhibition (MAPK14 (human) [2])?
Its inhibition is 34%.

Which results are given for `CCOC(=O)c1ccc(NC(=O)NCCc2[nH]nc(-c3ccc(F)cc3)c2-c2ccncc2)cc1`?
inhibition (MAPK14 (human) [3]): 90%; inhibition (MAPK14 (human) [2]): 17%

For `O=C(NCCc1[nH]nc(-c2ccc(F)cc2)c1-c1ccncc1)N1CCOCC1`, which inhibition (MAPK14 (human) [3]) is on record?
The inhibition was 86%.

And the inhibition (MAPK14 (human) [2])?
Its inhibition is 34%.

With `COc1cccc(CC(=O)NCCc2[nH]nc(-c3ccc(F)cc3)c2-c2ccncc2)c1` as the compound, how does the inhibition (MAPK14 (human) [3]) read?
The inhibition was 63%.

What about the inhibition (MAPK14 (human) [2]) of the same compound?
The inhibition was 31%.

Which inhibition (MAPK14 (human) [3]) does the source give for `O=C(CCC1CC=CC1)NCc1[nH]nc(-c2ccc(F)cc2)c1-c1ccncc1` here?
Its inhibition is 71%.

What about the inhibition (MAPK14 (human) [2]) of the same compound?
The inhibition was 84%.

For `CCCNC(=O)NCCc1[nH]nc(-c2ccc(F)cc2)c1-c1ccncc1`, which inhibition (MAPK14 (human) [3]) is on record?
The inhibition was 70%.

What about the inhibition (MAPK14 (human) [2]) of the same compound?
The inhibition was 73%.

With `O=S(=O)(NCCCc1[nH]nc(-c2ccc(F)cc2)c1-c1ccncc1)c1ccccc1` as the compound, how does the inhibition (MAPK14 (human) [3]) read?
Its inhibition is 74%.

What about the inhibition (MAPK14 (human) [2]) of the same compound?
The inhibition was 57%.

How did the inhibition (MAPK14 (human) [3]) turn out when `COc1ccc(S(=O)(=O)NCCc2[nH]nc(-c3ccc(F)cc3)c2-c2ccncc2)cc1OC` was run?
Its inhibition is 70%.

What about the inhibition (MAPK14 (human) [2]) of the same compound?
Its inhibition is 17%.

With `Cc1c(-c2ccncc2)c(-c2ccc(F)cc2)nn1CC(=O)N(C)CCCC1c2ccccc2CCc2ccccc21` as the compound, how does the inhibition (MAPK14 (human) [3]) read?
Its inhibition is 50%.

What about the IC50 (MAPK14 (human) [2]) of the same compound?
Its IC50 is > 10000 nM.

With `C=CCOC(=O)NCc1[nH]nc(-c2ccc(F)cc2)c1-c1ccncc1` as the compound, how does the inhibition (MAPK14 (human) [3]) read?
Its inhibition is 97%.

What about the IC50 (MAPK14 (human) [2]) of the same compound?
The IC50 was 10000 nM.
